# Test results as given in patent publication US20250179033A1 (priority 2021, published 2025).
# “And” between values parts separate entries of the source, which are not always exact repeats. Equal values may be shown once.
# Tests used:
# [1] = test system: Caco-2 cells; assay: Caco-2 permeability; type: in vitro ADME; settings: 10 μM
# Method: (§1) Caco-2 Permeability: Caco-2 cells (ATCC®, Manassas, Virginia, United States of America) were grown on 24-well (pore size: 0.4 μm) polycarbonate filters. The monolayers were pre-incubated with pre-warmed HBSS (Hank's balanced salt solution) containing 2.5% HEPES buffer (pH 7.4) for 0.5 h at 37° C. After pre-incubation, the buffer was removed, and the experimental compounds were added to reach a final concentration of 10 μM. 2% bovine serum albumin (BSA) was added to the receiver buffer for the study. The total volume was 400 μL for the apical (A) side and 1200 μL for the basolateral (B) side. For apical to basolateral transport study (A-B), 100 μL each was collected from both sides for sample analysis at the start of the assay and then 200 μL was collected from the […] at 90 minutes (end of the study). The same timepoints and amounts were used for the basolateral to apical transport study (B-A).
# (§2) The apparent permeability coefficient (Papp) was calculated from the following equation.
# (§3) • v=Volume of the receiver cell • A=Exposed surface area (0.64 cm^2) • C=Initial donor concentration • ∂C/∂t=Change in receiver concentration over time
# [2] = test system: Huh-7D12; assay: 99% toxic dose (TD99) in Huh-7D12; type: cell-based
# [3] = test system: THP-1; assay: 99% toxic dose (TD99) in THP-1; type: cell-based
# [4] = test system: E. coli PQ37; assay: Mutagenicity evaluation (SOS-chromotest); type: cell-based, Escherichia coli; settings: 10 mg/mL
# Method: Mutagenicity evaluation: Escherichia coli PQ37 strain was grown overnight at 37° C., with shaking, in Luria Broth Base supplemented with 50 μg/mL Ampicillin. Bacteria were grown to mid-logarithmic phase and adjusted to an optical density of 0.4.
# The second day, Luria Broth Base supplemented with 1.5% Agar was autoclaved for 15 minutes at 121° C. and then put into a water bath at 55° C. for 1 hour.
# 80 mL of warm agar was transferred into a plastic bottle (Milian, PETG 2019-0125) supplemented with […] ampicillin and 0.005% X-Gal (dissolved into DMF). 4 mL of E. coli PQ37 was added to the mixture and 70 mL of it was transferred into a square petri dish (Grenier Bio-One, Kremsmunster, Austria, 120×120 mm). Petri dish containing the mixture was dried 15 minutes at RT and once the mixture became solid, 6 mm absorbent disks were stuck on the plate.
# 5 μL of each compound were added on the disk with a pipet sold under the tradename PIPETMAN® P20 (Gilson S.A.S., Villiers-Le-Bel, France) and the petri dish was incubated overnight at 37° C.
# The third day, zones of inhibition were recorded with a ruler and a picture of the plate was taken with a scanner (Canon 8800F, Cannon U.S.A., Inc., Melville, New York, United States of America).
# Zone of inhibition was calculated by eye using a ruler and presence/absence of blue halo was reporter.
# [5] = target: CYP2C9 (Homo sapiens, UniProt P11712); assay: Human CYP inhibition in human liver microsomes; type: in vitro ADME; settings: substrate diclofenac, read-out: CYP inhibition IC50, 2C9
# Method: (§4) Study samples (containing either control inhibitor or test compound) were added into the tubes, vortexed gently and pre-incubated for 5 min at 37° C. 20 μL of NADPH solution was aliquoted into all tubes, then vortexed to start the reaction and to assure adequate mixture of the NADPH. After mixing, the tubes were incubated for 20 min at 37° C. in a shaking water bath and then quenched in […] formic acid/acetonitrile solution. After quenching, the samples were vortexed vigorously for 1 min and centrifuged at 4,000 rpm for 15 min (4° C.). 100 μL of supernatant was transferred to 0.65 ml tubes for LCMS analysis by the bioanalytical method described earlier. The CYP450 substrates and control inhibitors for each enzyme was as follows: CYP1A2 (phenacetin, naphthoflavone), CYP2C9 (diclofenac, sulfaphenazole), CYP2C19 (omeprazole, tranylcypromine), CYP2D6 (dextromethorphan, quinidine), CYP3A4 (midazolam, ketoconazole).
# [6] = target: CYP2C19 (Homo sapiens, UniProt P33261); assay: Human CYP inhibition in human liver microsomes; type: in vitro ADME; settings: substrate omeprazole, read-out: CYP inhibition IC50, 2C19
# Method: as §4
# [7] = target: T1, CYP1A2 (Homo sapiens, UniProt P05177); assay: Human CYP inhibition in human liver microsomes; type: in vitro ADME; settings: substrate phenacetin, read-out: CYP inhibition IC50, 1A2
# T1 sequence (P05177 1-516): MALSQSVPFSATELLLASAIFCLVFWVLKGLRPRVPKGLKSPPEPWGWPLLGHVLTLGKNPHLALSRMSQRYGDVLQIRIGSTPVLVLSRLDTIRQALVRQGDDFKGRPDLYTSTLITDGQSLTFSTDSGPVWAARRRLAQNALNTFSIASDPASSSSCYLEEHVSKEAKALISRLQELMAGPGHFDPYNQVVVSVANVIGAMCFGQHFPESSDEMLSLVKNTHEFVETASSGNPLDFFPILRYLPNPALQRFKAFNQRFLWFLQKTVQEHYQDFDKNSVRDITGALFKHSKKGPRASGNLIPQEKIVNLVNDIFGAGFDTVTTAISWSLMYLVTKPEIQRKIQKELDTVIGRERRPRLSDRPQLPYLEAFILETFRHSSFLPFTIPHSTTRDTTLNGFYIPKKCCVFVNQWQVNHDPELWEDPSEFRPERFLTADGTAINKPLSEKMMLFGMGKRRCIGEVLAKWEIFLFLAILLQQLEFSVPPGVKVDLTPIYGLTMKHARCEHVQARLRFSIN
# Method: as §4
# [8] = Caco-2 permeability; type: in vitro ADME; settings: human, Caco-2, pH 7.4
# Method: as §1, §2, §3
# CYP2C9, sequence (P11712 whole entry): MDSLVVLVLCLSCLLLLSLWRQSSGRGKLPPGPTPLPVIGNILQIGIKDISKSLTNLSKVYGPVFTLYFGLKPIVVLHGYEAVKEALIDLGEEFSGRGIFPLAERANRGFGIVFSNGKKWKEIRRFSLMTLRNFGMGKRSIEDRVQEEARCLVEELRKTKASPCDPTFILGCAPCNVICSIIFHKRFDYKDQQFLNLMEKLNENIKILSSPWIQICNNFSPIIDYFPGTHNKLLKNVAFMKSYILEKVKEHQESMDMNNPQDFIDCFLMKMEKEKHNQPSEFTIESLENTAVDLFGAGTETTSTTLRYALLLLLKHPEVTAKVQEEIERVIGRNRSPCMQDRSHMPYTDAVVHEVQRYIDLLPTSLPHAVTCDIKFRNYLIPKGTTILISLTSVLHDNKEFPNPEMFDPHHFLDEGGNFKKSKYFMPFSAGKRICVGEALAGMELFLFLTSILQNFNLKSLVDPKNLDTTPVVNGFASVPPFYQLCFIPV
# CYP2C19, sequence (P33261 whole entry): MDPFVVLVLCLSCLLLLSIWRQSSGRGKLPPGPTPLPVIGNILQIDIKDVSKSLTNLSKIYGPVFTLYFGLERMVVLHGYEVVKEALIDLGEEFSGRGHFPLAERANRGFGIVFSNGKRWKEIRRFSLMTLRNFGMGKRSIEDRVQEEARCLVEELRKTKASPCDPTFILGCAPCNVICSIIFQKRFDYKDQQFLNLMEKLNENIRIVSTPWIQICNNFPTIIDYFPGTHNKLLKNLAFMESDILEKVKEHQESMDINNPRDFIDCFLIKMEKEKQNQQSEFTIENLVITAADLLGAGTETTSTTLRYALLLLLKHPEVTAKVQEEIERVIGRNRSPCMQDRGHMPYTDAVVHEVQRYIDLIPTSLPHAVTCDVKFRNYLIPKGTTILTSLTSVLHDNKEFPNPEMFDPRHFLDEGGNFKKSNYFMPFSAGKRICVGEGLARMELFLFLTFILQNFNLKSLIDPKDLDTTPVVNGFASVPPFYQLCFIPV
Structure (SMILES),Caco-2 Papp A-B ([1]; 90 minutes) [×10⁻⁶ cm/s],Caco-2 Papp B-A ([1]; 90 minutes) [×10⁻⁶ cm/s],"Caco-2 Efflux ratio ([1]; human, Caco-2, 90 min, pH 7.4)",99% toxic dose (TD99) [2],99% toxic dose (TD99) [3],Genotoxicity in the SOS-chromotest [4],IC50 [5] [µM],IC50 [6] [µM],IC50 [7] [µM],"efflux ratio at 90 min, 10 μM [8]","Papp A→B at 90 min, 10 μM ([8]; 10 μM, 90 minutes) [×10⁻⁶ cm/s]","Papp B→A at 90 min, 10 μM ([8]; 10 μM, 90 minutes) [×10⁻⁶ cm/s]"
"Nc1nc(Nc2ccc(Cl)cc2)nn1S(=O)(=O)c1ccc2ccccc2c1 [Compound 1, N3-(4-chlorophenyl)-1-(2-naphthylsulfonyl)-1,2,4-triazole-3,5-diamine]",0.138,0.122,(×10−6 cm/s) Efflux ratio = 0.883,> 11 μg/ml and > 27.5 μM,> 11 μg/ml and > 27.5 μM,did not appear to be genotoxic,,,,,,
"N#C/C=C/c1ccc2c(S(=O)(=O)n3nc(Nc4ccc(C#N)c(Cl)c4)nc3N)cccc2c1 [Compound 20, 4-[[5-amino-1-[[6-[2-cyanovinyl]-1-naphthyl]sulfonyl]-1,2,4-triazol-3-yl]amino]-2-chloro-benzonitrile]",,,,,,,1.42,10.6,> 50,1,0.4,0.4
